Species: Rattus norvegicus
Assay: DrugMatrix - Regimen: Daily Repeat
Type: toxicity, organism-based, Sprague-Dawley
Design: regimen Daily Repeat, gender Male, age 6-8 weeks
Conditions: in vivo, po, route oral GAVAGE, vehicle 100 % WATER; for ABSOLUTE BASOPHIL / ABSOLUTE EOSINOPHIL / ABSOLUTE LYMPHOCYTE / ABSOLUTE MONOCYTE / ABSOLUTE SEGMENTED NEUTROPHIL / BASOPHIL / EOSINOPHIL / ERYTHROCYTE COUNT / HEMATOCRIT / HEMOGLOBIN / LEUKOCYTE COUNT / LYMPHOCYTE / MEAN CORPUSCULAR HEMOGLOBIN / MEAN CORPUSCULAR HEMOGLOBIN CONCENTRATION / MEAN CORPUSCULAR VOLUME / MONOCYTE / NEUTROPHIL / NUCLEATED RED BLOOD CELLS / PLATELET COUNT: tissue Blood; for ALANINE AMINOTRANSFERASE / ALBUMIN / ALKALINE PHOSPHATASE / ASPARTATE AMINOTRANSFERASE / BLOOD UREA NITROGEN / CARBON DIOXIDE / CHLORIDE / CHOLESTEROL / CREATINE PHOSPHOKINASE / CREATININE / GLUCOSE / LACTATE DEHYDROGENASE / LIPASE / PHOSPHORUS / POTASSIUM / SODIUM / TOTAL BILIRUBIN / TOTAL PROTEIN / URIC ACID: tissue Plasma
[1] = 0 mg/kg, 72 h, dose level Control, time 3 day
[2] = 0 mg/kg, 120 h, dose level Control, time 5 day
[3] = 11 mg/kg, 72 h, dose level Low, time 3 day

## CNS(=O)(=O)Cc1ccc2[nH]cc(CCN(C)C)c2c1
[1]
  ABSOLUTE BASOPHIL: 0 CELLS/uL
  ABSOLUTE EOSINOPHIL: 86.33 CELLS/uL
  ABSOLUTE LYMPHOCYTE: 12090.17 CELLS/uL
  ABSOLUTE MONOCYTE: 166.67 CELLS/uL
  ABSOLUTE SEGMENTED NEUTROPHIL: 1090.17 CELLS/uL
  BASOPHIL: 0%
  EOSINOPHIL: 0.67%
  ERYTHROCYTE COUNT: 5.57 x10E6/uL
  HEMATOCRIT: 35.33%
  HEMOGLOBIN: 13.83 G/DL
  LEUKOCYTE COUNT: 13.43 x10E3/uL
  LYMPHOCYTE: 89.83%
  MEAN CORPUSCULAR HEMOGLOBIN: 24.88 pg
  MEAN CORPUSCULAR HEMOGLOBIN CONCENTRATION: 39.15 G/DL
  MEAN CORPUSCULAR VOLUME: 63.52 fL
  MONOCYTE: 1.17%
  NEUTROPHIL: 8.33%
  NUCLEATED RED BLOOD CELLS: 0 /100WBC
  PLATELET COUNT: 1181.33 x10E3/uL
  ALANINE AMINOTRANSFERASE: 48.33 u/L
  ALBUMIN: 4.1 G/DL
  ALKALINE PHOSPHATASE: 395 u/L
  ASPARTATE AMINOTRANSFERASE: 81.83 u/L
  BLOOD UREA NITROGEN: 15.83 mg/dL
  CARBON DIOXIDE: 24.17 mmol/L
  CHLORIDE: 103.83 MEQ/L
  CHOLESTEROL: 63.67 mg/dL
  CREATINE PHOSPHOKINASE: 372.83 u/L
  CREATININE: 0.18 mg/dL
  GLUCOSE: 173.83 mg/dL
  LACTATE DEHYDROGENASE: 188.33 u/L
  LIPASE: 9.5 u/L
  PHOSPHORUS: 11.95 mg/dL
  POTASSIUM: 5.99 MEQ/L
  SODIUM: 144.43 MEQ/L
  TOTAL BILIRUBIN: 0.15 mg/dL
  TOTAL PROTEIN: 5.95 G/DL
  URIC ACID: 1.82 mg/dL
[2]
  ABSOLUTE BASOPHIL: 0 CELLS/uL
  ABSOLUTE EOSINOPHIL: 26.67 CELLS/uL
  ABSOLUTE LYMPHOCYTE: 7583.83 CELLS/uL
  ABSOLUTE MONOCYTE: 131.33 CELLS/uL
  ABSOLUTE SEGMENTED NEUTROPHIL: 674.83 CELLS/uL
  BASOPHIL: 0%
  EOSINOPHIL: 0.33%
  ERYTHROCYTE COUNT: 5.78 x10E6/uL
  HEMATOCRIT: 36.48%
  HEMOGLOBIN: 14.03 G/DL
  LEUKOCYTE COUNT: 8.42 x10E3/uL
  LYMPHOCYTE: 89.83%
  MEAN CORPUSCULAR HEMOGLOBIN: 24.3 pg
  MEAN CORPUSCULAR HEMOGLOBIN CONCENTRATION: 38.52 G/DL
  MEAN CORPUSCULAR VOLUME: 63.15 fL
  MONOCYTE: 1.67%
  NEUTROPHIL: 8.17%
  NUCLEATED RED BLOOD CELLS: 0 /100WBC
  PLATELET COUNT: 1186.67 x10E3/uL
  ALANINE AMINOTRANSFERASE: 50.17 u/L
  ALBUMIN: 4.07 G/DL
  ALKALINE PHOSPHATASE: 367.5 u/L
  ASPARTATE AMINOTRANSFERASE: 81.67 u/L
  BLOOD UREA NITROGEN: 16.17 mg/dL
  CARBON DIOXIDE: 32.33 mmol/L
  CHLORIDE: 101.5 MEQ/L
  CHOLESTEROL: 65.33 mg/dL
  CREATINE PHOSPHOKINASE: 255.33 u/L
  CREATININE: 0.17 mg/dL
  GLUCOSE: 139.33 mg/dL
  LACTATE DEHYDROGENASE: 95 u/L
  LIPASE: 10.5 u/L
  PHOSPHORUS: 10.38 mg/dL
  POTASSIUM: 6.11 MEQ/L
  SODIUM: 145.55 MEQ/L
  TOTAL BILIRUBIN: 0.17 mg/dL
  TOTAL PROTEIN: 5.98 G/DL
  URIC ACID: 0.93 mg/dL
[3]
  ABSOLUTE BASOPHIL: 0 CELLS/uL
  ABSOLUTE EOSINOPHIL: 39 CELLS/uL
  ABSOLUTE LYMPHOCYTE: 10656.67 CELLS/uL
  ABSOLUTE MONOCYTE: 38.67 CELLS/uL
  ABSOLUTE SEGMENTED NEUTROPHIL: 1065.67 CELLS/uL
  BASOPHIL: 0%
  EOSINOPHIL: 0.33%
  ERYTHROCYTE COUNT: 5.76 x10E6/uL
  HEMATOCRIT: 36.33%
  HEMOGLOBIN: 13.93 G/DL
  LEUKOCYTE COUNT: 11.8 x10E3/uL
  LYMPHOCYTE: 90.33%
  MEAN CORPUSCULAR HEMOGLOBIN: 24.2 pg
  MEAN CORPUSCULAR HEMOGLOBIN CONCENTRATION: 38.37 G/DL
  MEAN CORPUSCULAR VOLUME: 63.07 fL
  MONOCYTE: 0.33%
  NEUTROPHIL: 9%
  NUCLEATED RED BLOOD CELLS: 0 /100WBC
  PLATELET COUNT: 1289 x10E3/uL
  ALANINE AMINOTRANSFERASE: 45 u/L
  ALBUMIN: 3.83 G/DL
  ALKALINE PHOSPHATASE: 321.33 u/L
  ASPARTATE AMINOTRANSFERASE: 76.67 u/L
  BLOOD UREA NITROGEN: 14.67 mg/dL
  CARBON DIOXIDE: 26 mmol/L
  CHLORIDE: 103.33 MEQ/L
  CHOLESTEROL: 64.67 mg/dL
  CREATINE PHOSPHOKINASE: 413.33 u/L
  CREATININE: 0.14 mg/dL
  GLUCOSE: 155 mg/dL
  LACTATE DEHYDROGENASE: 166.33 u/L
  LIPASE: 8.67 u/L
  PHOSPHORUS: 12.6 mg/dL
  POTASSIUM: 6.24 MEQ/L
  SODIUM: 143.73 MEQ/L
  TOTAL BILIRUBIN: 0.17 mg/dL
  TOTAL PROTEIN: 5.63 G/DL
  URIC ACID: 1.4 mg/dL

Reference: ChEMBL document CHEMBL3885881, “DrugMatrix”
